Experimental data: ChEMBL document CHEMBL1275484, “Rifampin and rifaximin resistance in clinical isolates of Clostridium difficile” (Antimicrob Agents Chemother, 2008)

Key:
[1] = Drug level in diarrhea patient feces at 400 mg, po every 12 hrs for 3 days; format: ADME, organism-based; details: human, read-out: Drug uptake
Clostridioides difficile = experiment: Antimicrobial activity against Clostridium difficile clinical isolate obtained from patient after completion of two courses of drug treatment; format: functional

- concentration at 3 days [1]: 8e+06 ng/g
- MIC (Clostridioides difficile): > 256 µg/mL
SMILES: CO[C@H]1/C=C/O[C@@]2(C)Oc3c(C)c(O)c4c(O)c(c5c(nc6cc(C)ccn65)c4c3C2=O)NC(=O)/C(C)=C\C=C\[C@H](C)[C@H](O)[C@@H](C)[C@@H](O)[C@@H](C)[C@H](OC(C)=O)[C@@H]1C [RIFAXIMIN]
